# Literature values in patent US4316892A, “2,6-C-Dimethyltyrosine^1 -D-amino acid^2 -ε-amino caproic and γ aminobutyric acid^5 derivatives of methionine enkephalin” (G. D. Searle & Co., priority 1980, dated 1982).
# Key:
# [1] = injected directly into the brain of the rat; Belluzi et al.
# [2] = bioassays for opiate activity
# brain opiate receptor = conditions: partially purified brain opiate receptor; Bradbury et al.
substance,measurement,setting,value
methionine enkephalin,analgesic activity,[1],"weak, fleeting analgesic activity"
same,opiate activity,[2],highly active
same,binding to brain opiate receptor sites,brain opiate receptor,binds stereospecifically
